Laboratory results reported in patent US20120245223A1, “USE OF GYMNODIMINE, ANALOGUES AND DERIVATIVES FOR THE TREATMENT AND/OR PREVENTION OF NEURODEGENERATIVE DISEASES ASSOCIATED WITH TAU AND B-AMYLOID” (priority 2009, published 2012).

How the values were obtained:
[1] = cited from earlier work
[2] = tested on: tau phosphorylated on Thr212 and Ser214; assay: Western blot of tau phosphorylated on Thr212 and Ser214 (AT100 antibody) in 3×Tg-AD cortical cultures; assay type: cell-based, mouse; conditions: 3×Tg transgenic cultures, 50 nM, 3 to 7 days; p<0.001, n=3
Excerpt: (§1) In order to carry out the experiments of the present invention, either an in vitro cortical neuronal model with simultaneous overexpression of tau and β-amyloid, obtained from a model of Alzheimer's disease in triple-transgenic (3×Tg-AD or 3×Tg) mice, obtainable via the detailed procedure in the international patent application WO2003/053136 and provided by the title holders of this application, or an in vitro cortical neuronal model obtained from non-transgenic (Non Tg) mice.
(§2) The effect of gymnodimine on overexpression of β-amyloid and tau hyperphosphorylation was determined by the Western blot technique. Primary neuronal cultures were treated with 50 nM gymnodimine for between 3 and 7 days of culture. The cells were then processed following the usual protocols for Western blot. For Western blot studies, protein expression was evaluated using 6E10 anti-β-amyloid primary antibodies at a dilution of 1:500, AT8 anti-Tau (tau phosphorylated on Ser202, dilution 1:1000) and AT100 anti-tau (tau phosphorylated on Thr212 and Ser214, dilution 1:1000). […] Total protein concentration was determined by Bradford's method using bovine albumin as standard. […] The membranes were incubated with the primary antibodies, washed, and then incubated with a secondary antibody linked to HRP; the immunoreactivity was detected by chemiluminescence. […]

cortical neurones = assay: Alamar Blue fluorescence viability assay in primary cortical cultures; assay type: cell-based, mouse; conditions: for Viability of cortical neurones: 72 hours in culture, mean ± standard error, three experiments
Excerpt: as §1
The primary cortical cultures in the present invention were obtained from 3×Tg-AD mouse embryos of 15-17 days gestation and the wild cultures were obtained from non-3×Tg control mouse embryos of the same strain. The effect of the compounds used in this invention on cellular viability was estimated by a fluorescence assay using the Alamar Blue viability indicator. To carry out the assay, primary cortical cultures seeded on 96-well plates were used. The neuronal cells were incubated with gymnodimine, which was added to the culture medium at different concentrations, and the effect on in vitro neuronal viability at different treatment times was determined. The maximum concentration of gymnodimine evaluated was 100 nM and the concentration of Alamar blue was 10%. The volume of the reaction used was 200 μl. Fluorescence was measured at wavelengths of 530 nm (excitation) and 590 nm (emission).

[3] = tested on: nicotinic acetylcholine receptors; conditions: blocking effect; Kharrat et al. 2008, Dragunow et al. 2005; cited from earlier work
[4] = tested on: tau phosphorylated on Ser202; assay: Western blot of tau phosphorylated on Ser202 (AT8 antibody) in 3×Tg-AD cortical cultures; assay type: cell-based, mouse; conditions: 3×Tg transgenic cultures, 50 nM, 3 to 7 days; p<0.05, n=3
Excerpt: as §1, §2

β-amyloid = assay: Western blot of intracellular β-amyloid (6E10 antibody) in 3×Tg-AD cortical cultures; assay type: cell-based, mouse; conditions: 3×Tg-AD neocortical cultures, 50 nM, 3 to 7 days; p<0.005, n=3
Excerpt: as §1, §2

total tau = assay: Western blot of total tau basal levels (Tau46 antibody) in control neurones; assay type: cell-based, mouse; conditions: control (non-transgenic) neurones, 50 nM; mean ± standard error, two experiments
Procedure: (§3) The effect of gymnodimine on overexpression of β-amyloid and tau hyperphosphorylation was determined by the Western blot technique. Primary neuronal cultures were treated with 50 nM gymnodimine for between 3 and 7 days of culture. The cells were then processed following the usual protocols for Western blot. For Western blot studies, protein expression was evaluated using 6E10 anti-β-amyloid primary antibodies at a dilution of 1:500, AT8 anti-Tau (tau phosphorylated on Ser202, dilution 1:1000) and AT100 anti-tau (tau phosphorylated on Thr212 and Ser214, dilution 1:1000). For Western blot assays, the neuronal cultures treated with gymnodimine were washed with cold phosphate buffer and lysed in 50 mM Tris-HCl buffer (pH 7.4) containing 150 mM NaCl, 1 mM EDTA, 1% Triton X-100, 2 mM DTT, 2.5 mM PMSF, 40 mg/ml aprotinin, 4 mg/ml leupeptin, 5 mM NaF, 1 mM Na3VO4, 1 mg/ml pepstatin A and 1 mg/ml benzamidine. Total protein concentration was determined by Bradford's method using bovine albumin as standard. […] The membranes were incubated with the primary antibodies, washed, and then incubated with a secondary antibody linked to HRP; the immunoreactivity was detected by chemiluminescence. […]
(§4) The effect of gymnodimine on basal phosphorylation of tau was determined by Western blot techniques. […]

[5] = tested on: tau phosphorylated on site Ser202; assay: Western blot of basal tau phosphorylated on Ser202 in control neurones; assay type: cell-based, mouse; conditions: control (non-transgenic) neurones, 50 nM
Procedure: as §3, §4

CC1=C[C@@H](C2=C(C)[C@@H]3/C=C(\C)[C@@H](O)CC[C@H]4C[C@@H](C)[C@@H](O4)/C(C)=C/CCC4=NCCC[C@@]43CC2)OC1=O [Gymnodimine, gymnodimine]
Toxicity intracerebrally versus intraperitoneally ([1]; introduced intracerebrally compared with intraperitoneally): much higher when it is introduced intracerebrally | Toxicity when orally administered ([1]; oral administration, Munday et al. 2004): significantly reduced toxicity | Tau phosphorylation on Thr212 and Ser214 (Western blot, AT100) [2]: significant reduction of tau phosphorylation | Viability of cortical neurones (cortical neurones; 2.5 nM): 97.0 ± 4.9 % control | Viability of cortical neurones (cortical neurones; 5 nM): 102.8 ± 0.3 % control | Viability of cortical neurones (cortical neurones; 10 nM): 105.6 ± 5.9 % control | Viability of cortical neurones (cortical neurones; 25 nM): 105.1 ± 1.09 % control | Viability of cortical neurones (cortical neurones; 50 nM): 102.9 ± 1.4 % control | Viability of cortical neurones (cortical neurones; 100 nM): 101.8 ± 1.7 % control | Effect on cell viability (in words) (cortical neurones; up to maximum concentration of 100 nM, neuronal model): does not cause a reduction in cell viability | Binding to nicotinic acetylcholine receptors [3]: high affinity binding | Tau phosphorylation on Ser202 (Western blot, AT8) [4]: significant reduction of tau phosphorylation | Expression of intracellular β-amyloid (Western blot, 6E10) (β-amyloid): significant reduction of overexpression of β-amyloid | Total tau basal levels (total tau): 111 ± 3.9% control | Levels of tau phosphorylated on site Ser202 [5]: 95% control
